In patent publication US4138554A, “7-[D-α-(4-Hydroxy-1,5-naphthyridine-3-carboxamido)-α-phenyl (and p-hydroxyphenyl)acetamido]-3-carbamoyloxymethyl-3-cephem-4-carboxylic acids” (priority 1977, dated 1979):
≈ marks a conversion by molar mass, not a printed value. Where two headings read alike, the source gives them in different places.

Columns and labels:
E. coli Juhl = experiment: Median curative dose in mice, infection with E. coli Juhl; assay type: in vivo; details: Escherichia coli, sc
Text: (§1) Median Curative Dose in Mgm./Kg.
(§2) Upon Subcutaneous Injection in Mice

S. aureus = experiment: MIC by serial two-fold agar dilution (Mueller-Hinton agar), S. aureus; assay type: cell-based; details: Staphylococcus aureus
Procedure, shortened: (§3)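 Serial two-fold agar dilution on Mueller-Hinton agar plates, inoculated with a Steers' replicator. Primary screening covered 31 test organisms; secondary evaluation used 61 Pseudomonas aeruginosa strains. MIC taken as the lowest inhibitory concentration.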

S. aureus Smith = experiment: Median curative dose in mice, infection with S. aureus Smith; assay type: in vivo; details: Staphylococcus aureus, sc; subcutaneous injection in mice, S. aureus Smith, Table 4; read-out: Median Curative Dose (PD50)
Text: as §1, §2

Klebsiella sp. = experiment: MIC by serial two-fold agar dilution (Mueller-Hinton agar), Klebsiella sp.; assay type: cell-based
Procedure, shortened: (§4)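 Compounds were diluted two-fold serially into Mueller-Hinton agar, then organisms were applied using Steers' apparatus and MICs read. The primary panel comprised 31 test organisms, and the secondary evaluation 61 strains of P. aeruginosa.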

S. marcescens = experiment: MIC by serial two-fold agar dilution (Mueller-Hinton agar), S. marcescens; assay type: cell-based
Procedure, shortened: as §4

Ps. aeruginosa A9843 = experiment: Median curative dose in mice, infection with Ps. aeruginosa; assay type: in vivo; details: for ED50: Pseudomonas aeruginosa, A9843, sc
Text: as §1, §2

K. pneumoniae = experiment: MIC by serial two-fold agar dilution (Mueller-Hinton agar), K. pneumoniae; assay type: cell-based; details: Klebsiella pneumoniae
Procedure, shortened: as §4

S. enteritidis = experiment: MIC by serial two-fold agar dilution (Mueller-Hinton agar), S. enteritidis; assay type: cell-based
Procedure, shortened: as §4

E. cloacae = experiment: MIC by serial two-fold agar dilution (Mueller-Hinton agar), E. cloacae; assay type: cell-based; details: Enterobacter cloacae
Procedure, shortened: as §3

Pseudomonas aeruginosa = experiment: MIC by agar dilution against 61 strains of Pseudomonas aeruginosa, secondary evaluation; assay type: cell-based
Procedure, shortened: as §3

Work on CC1(C)S[C@@H]2[C@H](NC(=O)C(c3ccccc3)S(=O)(=O)O)C(=O)N2[C@H]1C(=O)O (some centres unmarked) [Sulbenicillin, sulbenicillin] yielded an ED50 (E. coli Juhl; mice, E. coli Juhl infection, Table 5, read-out: PD50) of 8.5 mg/kg, an ED50 (E. coli Juhl; subcutaneous injection in mice, E. coli Juhl, Table 4, read-out: Median Curative Dose (PD50)) of 9.5 mg/kg and an MIC (S. aureus; S. aureus BX-1633, Table 1, read-out: MIC) of 3.1 µg/mL (≈ 7.48 µM). For the same compound, the MIC (S. aureus; S. aureus BX-1633 A9606, Table 6, read-out: MIC) was 3.1 µg/mL (≈ 7.48 µM), the MIC (S. aureus; S. aureus Smith (1st line), Table 1, read-out: MIC) was 1.6 µg/mL (≈ 3.86 µM) and the MIC (S. aureus; S. aureus Smith (2nd line), Table 1, read-out: MIC) was 6.3 µg/mL (≈ 15.2 µM). The MIC (S. aureus; S. aureus Smith A9537, Table 6, read-out: MIC) was 3.1 µg/mL (≈ 7.48 µM), the MIC (S. aureus; S. aureus Smith A15907, Table 6) was 12.5 µg/mL (≈ 30.2 µM) and the MIC (S. aureus; S. aureus Smith A20239, Table 6, read-out: MIC) was 6.3 µg/mL (≈ 15.2 µM). For the same compound, the MIC (S. aureus; S. aureus Smith A20240, Table 6, read-out: MIC) was 6.3 µg/mL (≈ 15.2 µM), the MIC (S. aureus; S. aureus Smith A20701, Table 6, read-out: MIC) was 50 µg/mL (≈ 121 µM) and the MIC (S. aureus; S. aureus, unnamed strain (4th S. aureus line), Table 1, read-out: MIC) was 25 µg/mL (≈ 60.3 µM). The MIC (S. aureus; S. aureus, unnamed strain (5th S. aureus line), Table 1, read-out: MIC) was 3.1 µg/mL (≈ 7.48 µM), the MIC (S. aureus; S. aureus, unnamed strain (6th S. aureus line), Table 1, read-out: MIC) was 50 µg/mL (≈ 121 µM) and the ED50 (S. aureus Smith) was 2.4 mg/kg. For the same compound, the MIC (Klebsiella sp.; Klebsiella) was 12.5 µg/mL (≈ 30.2 µM), the MIC (Klebsiella sp.; Klebsiella sp. A20452, Table 6) was 12.5 µg/mL (≈ 30.2 µM) and the MIC (S. marcescens; S. marcescens A20019, Table 6) was 6.3 µg/mL (≈ 15.2 µM). For the same compound, the MIC (S. marcescens; Serratia marcescens, S. marcescens, Table 1, read-out: MIC) was 6.3 µg/mL (≈ 15.2 µM), the ED50 (Ps. aeruginosa A9843; mice, P. aerug. A9843 infection, Table 5, read-out: PD50) was 140 mg/kg and the ED50 (Ps. aeruginosa A9843; subcutaneous injection in mice, Ps. aeruginosa, Table 4, read-out: Median Curative Dose (PD50)) was 85 mg/kg. For the same compound, the PD50 (Ps. aeruginosa A9843; mice, P. aerug. A9843 infection, Table 5) was 130 mg/kg, the MIC (K. pneumoniae; K. pneumoniae A9977, Table 6) was 3.1 µg/mL (≈ 7.48 µM) and the MIC (K. pneumoniae; K. pneumoniae, Table 1) was 6.3 µg/mL (≈ 15.2 µM). The MIC (S. enteritidis; S. enteritidis A9531, Table 6) was 1.6 µg/mL (≈ 3.86 µM), the MIC (S. enteritidis; Salmonella enterica, S. enteritidis, Table 1, read-out: MIC) was 1.6 µg/mL (≈ 3.86 µM) and the MIC (E. cloacae; E. cloacae (1st line), Table 1) was 12.5 µg/mL (≈ 30.2 µM). The MIC (E. cloacae; E. cloacae (2nd line), Table 1) was greater than 100 µg/mL, the MIC (E. cloacae; E. cloacae (3rd line), Table 1) was 12.5 µg/mL (≈ 30.2 µM) and the MIC (E. cloacae; E. cloacae A9656, Table 6) was 12.5 µg/mL (≈ 30.2 µM). For the same compound, the MIC (E. cloacae; E. cloacae A9657, Table 6) was greater than 100 µg/mL, the MIC (E. cloacae; E. cloacae A9659, Table 6) was 12.5 µg/mL (≈ 30.2 µM) and the MIC (Pseudomonas aeruginosa; BBRI Pa-No. 1, D15, Table 7) was 12.5 µg/mL (≈ 30.2 µM). For the same compound, the MIC (Pseudomonas aeruginosa; BBRI Pa-No. 3, 1449VA, Table 7) was 12.5 µg/mL (≈ 30.2 µM), the MIC (Pseudomonas aeruginosa; BBRI Pa-No. 4, H9 D113, Table 7) was 12.5 µg/mL (≈ 30.2 µM) and the MIC (Pseudomonas aeruginosa; BBRI Pa-No. 9, Yale, Table 7) was 12.5 µg/mL (≈ 30.2 µM). For the same compound, the MIC (Pseudomonas aeruginosa; BBRI Pa-No. 14, Table 7) was 12.5 µg/mL (≈ 30.2 µM), the MIC (Pseudomonas aeruginosa; BBRI Pa-No. 17, H6 D114, Table 2) was 12.5 µg/mL (≈ 30.2 µM) and the MIC (Pseudomonas aeruginosa; BBRI Pa-No. 18, H8 D121, Table 2) was 12.5 µg/mL (≈ 30.2 µM). For the same compound, the MIC (Pseudomonas aeruginosa; BBRI Pa-No. 19, Table 2) was 12.5 µg/mL (≈ 30.2 µM), the MIC (Pseudomonas aeruginosa; BBRI Pa-No. 25, Table 2) was 12.5 µg/mL (≈ 30.2 µM) and the MIC (Pseudomonas aeruginosa; BBRI Pa-No. 26, Ps32, Table 2) was 12.5 µg/mL (≈ 30.2 µM). It also gave an MIC (Pseudomonas aeruginosa; BBRI Pa-No. 26, Ps32, Table 7) of 12.5 µg/mL (≈ 30.2 µM), an MIC (Pseudomonas aeruginosa; BBRI Pa-No. 31, Table 2) of 12.5 µg/mL (≈ 30.2 µM) and an MIC (Pseudomonas aeruginosa; BBRI Pa-No. 34, Table 7) of 12.5 µg/mL (≈ 30.2 µM). For the same compound, the MIC (Pseudomonas aeruginosa; BBRI Pa-No. 60, Table 2) was 12.5 µg/mL (≈ 30.2 µM), the MIC (Pseudomonas aeruginosa; BBRI Pa-No. 60, Table 7) was 12.5 µg/mL (≈ 30.2 µM) and the MIC (Pseudomonas aeruginosa; Pseudomonas aeruginosa) was 12.5 µg/mL (≈ 30.2 µM). The MIC (Pseudomonas aeruginosa; Pseudomonas aeruginosa, 61 strains of Pseudomonas aeruginosa, Table 7, read-out: Geometric Mean of MIC) was 24 µg/mL (≈ 57.9 µM), the MIC (Pseudomonas aeruginosa; Pseudomonas aeruginosa, BBRI Pa-No. 1, D15, Table 2, read-out: MIC) was 25 µg/mL (≈ 60.3 µM) and the MIC (Pseudomonas aeruginosa; Pseudomonas aeruginosa, BBRI Pa-No. 2, VA, Table 7, read-out: MIC) was 25 µg/mL (≈ 60.3 µM). The MIC (Pseudomonas aeruginosa; Pseudomonas aeruginosa, BBRI Pa-No. 3, 1449VA, Table 2, read-out: MIC) was 6.3 µg/mL (≈ 15.2 µM), the MIC (Pseudomonas aeruginosa; Pseudomonas aeruginosa, BBRI Pa-No. 4, H9 D113, Table 2, read-out: MIC) was 25 µg/mL (≈ 60.3 µM) and the MIC (Pseudomonas aeruginosa; Pseudomonas aeruginosa, BBRI Pa-No. 5, M4865KC, Table 2, read-out: MIC) was 25 µg/mL (≈ 60.3 µM). For the same compound, the MIC (Pseudomonas aeruginosa; Pseudomonas aeruginosa, BBRI Pa-No. 5, N4865KC, Table 7, read-out: MIC) was 6.3 µg/mL (≈ 15.2 µM), the MIC (Pseudomonas aeruginosa; Pseudomonas aeruginosa, BBRI Pa-No. 6, No. 5, Table 2, read-out: MIC) was greater than 100 µg/mL and the MIC (Pseudomonas aeruginosa; Pseudomonas aeruginosa, BBRI Pa-No. 6, No. 5, Table 7, read-out: MIC) was 100 µg/mL (≈ 241 µM). It also gave an MIC (Pseudomonas aeruginosa; Pseudomonas aeruginosa, BBRI Pa-No. 7, Table 2, read-out: MIC) of 25 µg/mL (≈ 60.3 µM), an MIC (Pseudomonas aeruginosa; Pseudomonas aeruginosa, BBRI Pa-No. 7, Table 7, read-out: MIC) of 25 µg/mL (≈ 60.3 µM) and an MIC (Pseudomonas aeruginosa; Pseudomonas aeruginosa, BBRI Pa-No. 8, Table 2, read-out: MIC) of 25 µg/mL (≈ 60.3 µM). The MIC (Pseudomonas aeruginosa; Pseudomonas aeruginosa, BBRI Pa-No. 8, Table 7, read-out: MIC) was 25 µg/mL (≈ 60.3 µM), the MIC (Pseudomonas aeruginosa; Pseudomonas aeruginosa, BBRI Pa-No. 9, Yale, Table 2, read-out: MIC) was 25 µg/mL (≈ 60.3 µM) and the MIC (Pseudomonas aeruginosa; Pseudomonas aeruginosa, BBRI Pa-No. 10, Table 2, read-out: MIC) was greater than 100 µg/mL. It also gave an MIC (Pseudomonas aeruginosa; Pseudomonas aeruginosa, BBRI Pa-No. 10, Table 7, read-out: MIC) greater than 100 µg/mL, an MIC (Pseudomonas aeruginosa; Pseudomonas aeruginosa, BBRI Pa-No. 11, Table 2, read-out: MIC) of 25 µg/mL (≈ 60.3 µM) and an MIC (Pseudomonas aeruginosa; Pseudomonas aeruginosa, BBRI Pa-No. 11, Table 7, read-out: MIC) of 25 µg/mL (≈ 60.3 µM). The MIC (Pseudomonas aeruginosa; Pseudomonas aeruginosa, BBRI Pa-No. 12, Table 2, read-out: MIC) was 50 µg/mL (≈ 121 µM), the MIC (Pseudomonas aeruginosa; Pseudomonas aeruginosa, BBRI Pa-No. 12, Table 7, read-out: MIC) was 25 µg/mL (≈ 60.3 µM) and the MIC (Pseudomonas aeruginosa; Pseudomonas aeruginosa, BBRI Pa-No. 14, Table 2, read-out: MIC) was 25 µg/mL (≈ 60.3 µM). The MIC (Pseudomonas aeruginosa; Pseudomonas aeruginosa, BBRI Pa-No. 15, Table 2, read-out: MIC) was 100 µg/mL (≈ 241 µM), the MIC (Pseudomonas aeruginosa; Pseudomonas aeruginosa, BBRI Pa-No. 15, Table 7, read-out: MIC) was 50 µg/mL (≈ 121 µM) and the MIC (Pseudomonas aeruginosa; Pseudomonas aeruginosa, BBRI Pa-No. 16, No. 130, Table 2, read-out: MIC) was 6.3 µg/mL (≈ 15.2 µM). It also gave an MIC (Pseudomonas aeruginosa; Pseudomonas aeruginosa, BBRI Pa-No. 16, No. 130, Table 7, read-out: MIC) of 3.1 µg/mL (≈ 7.48 µM), an MIC (Pseudomonas aeruginosa; Pseudomonas aeruginosa, BBRI Pa-No. 17, H6 D114, Table 7, read-out: MIC) of 25 µg/mL (≈ 60.3 µM) and an MIC (Pseudomonas aeruginosa; Pseudomonas aeruginosa, BBRI Pa-No. 18, H8 D121, Table 7, read-out: MIC) of 3.1 µg/mL (≈ 7.48 µM). For the same compound, the MIC (Pseudomonas aeruginosa; Pseudomonas aeruginosa, BBRI Pa-No. 19, Table 7, read-out: MIC) was 6.3 µg/mL (≈ 15.2 µM), the MIC (Pseudomonas aeruginosa; Pseudomonas aeruginosa, BBRI Pa-No. 20, Table 2, read-out: MIC) was 25 µg/mL (≈ 60.3 µM) and the MIC (Pseudomonas aeruginosa; Pseudomonas aeruginosa, BBRI Pa-No. 20, Table 7, read-out: MIC) was 25 µg/mL (≈ 60.3 µM). For the same compound, the MIC (Pseudomonas aeruginosa; Pseudomonas aeruginosa, BBRI Pa-No. 21, Table 2, read-out: MIC) was 25 µg/mL (≈ 60.3 µM) and the MIC (Pseudomonas aeruginosa; Pseudomonas aeruginosa, BBRI Pa-No. 21, Table 7, read-out: MIC) was 25 µg/mL (≈ 60.3 µM).
